Results as given in publication PMC9027111, “Morphing Natural Product Platensimycin via Heck, Sonogashira, and One-Pot Sonogashira/Cycloaddition Reactions to Produce Antibiotics with In Vivo Activity” (Antibiotics, 2022).
Values after ≈ are worked out from the molar mass of the structure shown.

Assays:
[1] = tested on: MRSA 3; assay: MIC determination (LB agar dilution), clinical MRSA strain 3; type: cell-based; settings: Staphylococcus aureus, at least two replicates
Method: (§1) All of the tested compounds were prepared to different concentrations with methanol, and 150 μL of the respective methanol solution was used to mix with 15 mL LB (Luria–Bertani) medium with 1% agar in each Petri dish. Linezolid and PTM were used as reference compounds for comparison. In vitro bioassay for compounds was carried out using clinical strains of S. aureus, E. coli, and Klebsilla pneumoniae. The bacteria were cultivated in LB medium and incubated for 16 h at 37 °C, 250 rpm. The resulting bacteria were diluted to approximate 0.25 at OD600, which were further diluted 10_4-fold. The diluted bacteria (2 μL) were added to Petri dish containing the respective compounds. The resulting Petri dishes were incubated for 16 h at 37 °C. The determination of MIC is the concentration of Petri dishes with no visible growth of bacteria.

[2] = tested on: MRSA 4; assay: MIC determination (LB agar dilution), clinical MRSA strain 4; type: cell-based; settings: Staphylococcus aureus, at least two replicates
Method: as §1

[3] = tested on: MSSA 1; assay: MIC determination (LB agar dilution), clinical MSSA strain 1; type: cell-based; settings: Staphylococcus aureus, at least two replicates
Method: as §1

[4] = tested on: S. aureus ATCC 29213; assay: MIC determination (LB agar dilution), S. aureus ATCC 29213; type: cell-based; settings: Staphylococcus aureus, ATCC29213, at least two replicates
Method: as §1

[5] = tested on: MSSA 2; assay: MIC determination (LB agar dilution), clinical MSSA strain 2; type: cell-based; settings: Staphylococcus aureus, at least two replicates
Method: as §1

[6] = tested on: MRSA; type: in vivo; settings: 50 mg/kg intraperitoneal at 1 h and 5 h after infection, tracked 7 days, n = 5

| SMILES | MIC [1] [µg/mL] | MIC [2] [µg/mL] | MIC [3] [µg/mL] | MIC [4] [µg/mL] | MIC [5] [µg/mL] | survival of infected mice [6] [%] |
| --- | --- | --- | --- | --- | --- | --- |
| CC12CC34C=C(C#Cc5ccccc5)C(=O)C(C)(CCC(=O)Nc5c(O)ccc(C(=O)O)c5O)C3C(CC1C4)O2 (stereo not shown) [B7] | 1 (≈ 1.85 µM) | 1 (≈ 1.85 µM) | 1 (≈ 1.85 µM) | 1 (≈ 1.85 µM) | 1 (≈ 1.85 µM) |  |
| CC12CC34C=C(C#Cc5cccc(N)c5)C(=O)C(C)(CCC(=O)Nc5c(O)ccc(C(=O)O)c5O)C3C(CC1C4)O2 (stereo not shown) [B9] | 1 (≈ 1.8 µM) | 1 (≈ 1.8 µM) | 1 (≈ 1.8 µM) | 1 (≈ 1.8 µM) | 1 (≈ 1.8 µM) |  |
| Cc1ccc(C#CC2=CC34CC5CC(OC5(C)C3)C4C(C)(CCC(=O)Nc3c(O)ccc(C(=O)O)c3O)C2=O)cc1 (stereo not shown) [B10] | 8 (≈ 14.4 µM) | 4 (≈ 7.2 µM) | 4 (≈ 7.2 µM) | 8 (≈ 14.4 µM) | 4 (≈ 7.2 µM) |  |
| CCc1ccc(C#CC2=CC34CC5CC(OC5(C)C3)C4C(C)(CCC(=O)Nc3c(O)ccc(C(=O)O)c3O)C2=O)cc1 (stereo not shown) [B11] | 1 (≈ 1.76 µM) | 1 (≈ 1.76 µM) | 1 (≈ 1.76 µM) | 1 (≈ 1.76 µM) | 1 (≈ 1.76 µM) |  |
| CCCCc1ccc(C#CC2=CC34CC5CC(OC5(C)C3)C4C(C)(CCC(=O)Nc3c(O)ccc(C(=O)O)c3O)C2=O)cc1 (stereo not shown) [B12] | 8 (≈ 13.4 µM) | 8 (≈ 13.4 µM) | 8 (≈ 13.4 µM) | 8 (≈ 13.4 µM) | 8 (≈ 13.4 µM) |  |
| COc1ccc(C#CC2=CC34CC5CC(OC5(C)C3)C4C(C)(CCC(=O)Nc3c(O)ccc(C(=O)O)c3O)C2=O)cc1 (stereo not shown) [B13] | 1 (≈ 1.75 µM) | 1 (≈ 1.75 µM) | 1 (≈ 1.75 µM) | 1 (≈ 1.75 µM) | 1 (≈ 1.75 µM) |  |
| CC12CC34C=C(C#Cc5ccc(F)cc5)C(=O)C(C)(CCC(=O)Nc5c(O)ccc(C(=O)O)c5O)C3C(CC1C4)O2 (stereo not shown) [B14] | 1 (≈ 1.79 µM) | 1 (≈ 1.79 µM) | 1 (≈ 1.79 µM) | 1 (≈ 1.79 µM) | 1 (≈ 1.79 µM) |  |
| CC12CC34C=C(C#Cc5ccc(Cl)cc5)C(=O)C(C)(CCC(=O)Nc5c(O)ccc(C(=O)O)c5O)C3C(CC1C4)O2 (stereo not shown) [B15] | 1 (≈ 1.74 µM) | 1 (≈ 1.74 µM) | 1 (≈ 1.74 µM) | 1 (≈ 1.74 µM) | 1 (≈ 1.74 µM) |  |
| CC(=O)C1=C(C)OC(Cc2ccccc2)=C2C(=O)C(C)(CCC(=O)Nc3c(O)ccc(C(=O)O)c3O)C3C4CC5CC3(CC5(C)O4)C12 (stereo not shown) [C1] | 16 (≈ 24.9 µM) | 16 (≈ 24.9 µM) | 16 (≈ 24.9 µM) | 16 (≈ 24.9 µM) | 16 (≈ 24.9 µM) |  |
| CC(=O)C1=C(C)OC(Cc2ccc(C)cc2)=C2C(=O)C(C)(CCC(=O)Nc3c(O)ccc(C(=O)O)c3O)C3C4CC5CC3(CC5(C)O4)C12 (stereo not shown) [C2] | 16 (≈ 24.4 µM) | 16 (≈ 24.4 µM) | 16 (≈ 24.4 µM) | 16 (≈ 24.4 µM) | 16 (≈ 24.4 µM) |  |
| CCc1ccc(CC2=C3C(=O)C(C)(CCC(=O)Nc4c(O)ccc(C(=O)O)c4O)C4C5CC6CC4(CC6(C)O5)C3C(C(C)=O)=C(C)O2)cc1 (stereo not shown) [C3] | 32 (≈ 47.8 µM) | 32 (≈ 47.8 µM) | 32 (≈ 47.8 µM) | 32 (≈ 47.8 µM) | 32 (≈ 47.8 µM) |  |
| CCCCc1ccc(CC2=C3C(=O)C(C)(CCC(=O)Nc4c(O)ccc(C(=O)O)c4O)C4C5CC6CC4(CC6(C)O5)C3C(C(C)=O)=C(C)O2)cc1 (stereo not shown) [C4] | 32 (≈ 45.9 µM) | 32 (≈ 45.9 µM) | 32 (≈ 45.9 µM) | 32 (≈ 45.9 µM) | 32 (≈ 45.9 µM) |  |
| CC(=O)C1=C(C)OC(Cc2cccc(F)c2)=C2C(=O)C(C)(CCC(=O)Nc3c(O)ccc(C(=O)O)c3O)C3C4CC5CC3(CC5(C)O4)C12 (stereo not shown) [C5] | 16 (≈ 24.3 µM) | 16 (≈ 24.3 µM) | 16 (≈ 24.3 µM) | 16 (≈ 24.3 µM) | 16 (≈ 24.3 µM) |  |
| CC(=O)C1=C(C)OC(Cc2ccc(Cl)cc2)=C2C(=O)C(C)(CCC(=O)Nc3c(O)ccc(C(=O)O)c3O)C3C4CC5CC3(CC5(C)O4)C12 (stereo not shown) [C7] | 32 (≈ 47.3 µM) | 32 (≈ 47.3 µM) | 32 (≈ 47.3 µM) | 32 (≈ 47.3 µM) | 32 (≈ 47.3 µM) |  |
| CC(=O)NC[C@H]1CN(c2ccc(N3CCOCC3)c(F)c2)C(=O)O1 [Linezolid, reference compound] | 1 (≈ 2.96 µM) | 1 (≈ 2.96 µM) | 1 (≈ 2.96 µM) | 1 (≈ 2.96 µM) | 1 (≈ 2.96 µM) |  |
| CN[C@H](CC(C)C)C(=O)N[C@H]1C(=O)N[C@@H](CC(N)=O)C(=O)N[C@H]2C(=O)N[C@H]3C(=O)N[C@H](C(=O)N[C@H](C(=O)O)c4cc(O)cc(O)c4-c4cc3ccc4O)[C@H](O)c3ccc(c(Cl)c3)Oc3cc2cc(c3O[C@@H]2O[C@H](CO)[C@@H](O)[C@H](O)[C@H]2O[C@H]2C[C@](C)(N)[C@H](O)[C@H](C)O2)Oc2ccc(cc2Cl)[C@H]1O [vancomycin, reference compound] |  |  |  |  |  | 100 |
